Data: publication PMC4738272 (Scientific Reports, 2016)
Several values for one entry are separate records, joined by “and”; a condition that tells them apart may be missing. Identical values can stand only once.

Assays:
Human Skeletal Myofibers [1] = experiment: MTT viability of skeletal muscle module in 4-organ system; conditions: 4-organ co-culture under flow, serum-free medium, 48 h drug treatment, day 7, vs control; DOX 5 μM, ATR 100 μM, VPA 2 mM, APAP 5 mM, AMAP 5 mM
From the text: (§1) The four organ in vitro systems were assembled, on day 0, by placing the corresponding surfaces cell side up in a specific chamber of the housing (liver coverslip into chamber 1, cardiac coverslips and cantilevers into chambers 2 and 4, muscle coverslips into chamber 5, and neuron coverslips into chamber 3 and they were then topped with the serum-free co-culture medium (1X Neurobasal Medium, 1X B27, 1X AB/AM, 1X Glutamax (all from Life Technologies)) before locking the system. Right after assembling, the medium was completely replaced with 4 mL of the co-culture defined serum-free medium and the systems placed on a rocking platform inside an incubator. Platforms were checked every day by inspecting for expected cell morphology inside the system and by replacing medium (1.2 mL total volume) from the two reservoirs (30% of the total volume was replaced) with fresh medium. Drug incubation was initiated on day 5 of the co-culture by addition of the drug through the reservoir closer to the liver chamber (no. 1), allowing a first contact of the drug with the liver. 20 μL of the drug stock solution (or vehicle) to achieve a working concentration in 4 mL of total volume in the platform was utilized. On day 6, after 24 hours of drug incubation, 6 μL of the drug stock solution (or vehicle) was added to the fresh medium exchange volume (1.2 mL). After 48 hour of drug incubation, on day 7, systems were disassembled to test organ functionality that same day. For mono-culture conditions, surfaces remained in a 12-well plated with 1 mL of the co-culture defined serum-free medium maintained by daily replacement of half volume.
(§2) Seven days after the initiation of the co-culture, viability of each organ chamber, except for neurons, was evaluated through an MTT assay. […] Cell viability was measured at 570 nm in a Synergy HT plate reader and KC4 software. The results were expressed as the percentage of cell survival relative to the control (untreated or incubated with vehicle). The neuronal fraction viability was evaluated through morphological analysis throughout the co-culture experiment as the final coverslips were used for patch-clamp electrophysiology. Phase images (10X) where obtained every day of the co-culture. Neuronal viability was evaluated by cell morphology integrity and by cell count from day 1 to day 14.

Muscle = tested on: Muscle; set-up: method as in Literature; conditions: general toxic effects reported in the literature; ref Literature; cited from earlier work
neurons [2] = experiment: Neuronal viability by morphological analysis and cell count in 4-organ system; conditions: 4-organ co-culture under flow, serum-free medium, 48 h drug treatment, day 7, vs control, DOX 5 μM, ATR 100 μM, VPA 2 mM, APAP 5 mM, AMAP 5 mM
From the text: as §1, §2

HepG2/C3A [3] = experiment: Urea quantification, liver fraction of 4-organ system; type: cell-based, human; conditions: 4-organ co-culture under flow, 48 h drug treatment, vs control, DOX 5 μM, ATR 100 μM, APAP 5 mM, AMAP 5 mM
HepG2/C3A [4] = experiment: MTT viability of liver module in 4-organ system; type: cell-based, human; conditions: 4-organ co-culture under flow, serum-free medium, 48 h drug treatment, day 7, vs control, DOX 5 μM, ATR 100 μM, VPA 2 mM, APAP 5 mM, AMAP 5 mM
From the text: as §1, §2

Human Skeletal Myofibers [5] = experiment: Myotube stimulated contraction (binary: contracting or not); type: cell-based; conditions: 4-organ co-culture under flow, 48 h drug treatment, day 7, broad-field electrical stimulation, DOX 5 μM, ATR 100 μM, VPA 2 mM, APAP 5 mM, AMAP 5 mM
Procedure: Myotube contraction in coverslips was evaluated after the co-culture was finalized. Individual surfaces were evaluated as previously reported in the group. Drugs effects were quantify in a binary code mode, cells were or were not contracting.

Neurons [6] = tested on: Neurons; set-up: method as in Literature; conditions: general toxic effects reported in the literature; ref Literature; cited from earlier work
[7] = tested on: iPSc differentiated Cardiomyocytes; experiment: Cardiac beating frequency from video recordings; type: cell-based, human; conditions: 4-organ co-culture under flow, 48 h drug treatment, day 7, vs control, DOX 5 μM, AMAP 5 mM
Procedure: Seven or fourteen days after the co-culture, cardiac beating frequency was quantified from video recordings of three different areas of each of the cMEA surfaces, where the cardiomyocytes culture where located. Surfaces were located in a 37 °C bath platform containing co-culture medium with 50 mM HEPES on the stage of a Zeiss Axioscope 2FS upright microscope. Beats were counted in a period of 10 s, and the average number of 3 values was obtained. Drug effect was plotted as percentage of change compared to the control conditions.

neuron = tested on: neuron; set-up: method as in PMID 17298386; conditions: 1uM DOX for 24 hours; read-out: Neuron viability drop; cited from earlier work
Liver [8] = tested on: Liver; set-up: method as in Literature; conditions: general toxic effects reported in the literature; ref Literature; cited from earlier work
Cardiomyocytes = tested on: Cardiomyocytes; set-up: method as in Literature; conditions: general toxic effects reported in the literature; ref Literature; cited from earlier work
HepG2/C3A [9] = experiment: Human Serum Albumin quantification (ELISA), liver fraction of 4-organ system; type: cell-based; conditions: 4-organ co-culture under flow, 48 h drug treatment, vs control, DOX 5 μM, ATR 100 μM, VPA 2 mM, APAP 5 mM, AMAP 5 mM
Procedure: Human Serum Albumin (HSA) production from the liver fraction was tracked throughout the co-culture, by measuring the HSA concentration in the supernatant of the culture as it represents liver protein anabolism. Samples were collected from the exchanged medium (1.2 mL) and stored at −20 °C until analysis. One freeze-thaw cycle occurred before samples were analyzed following manufacturers’ instructions provided in the ELISA Starter Accessory Kit (Bethyl Laboratories Inc, Cat #: E101). Samples were diluted as necessary in sample conjugate/diluent buffer to ensure readings measured within the range of the standard curve. The standard curve was prepared by serial dilutions of human reference serum in sample conjugate/diluent buffer (0–1600 ng/ml).
Final HSA concentrations were calculated in an excel file by first removing the average OD reading measured for blanks from average sample and standard OD readings. Concentrations of standard dilutions were plotted against average OD values measured in XY scatter plots. A standard curve was created by adding an order of 2 polynomial trendline to XY scatter plots and selecting the option to display the equation of the trendline, as well as the R^2 value, on each scatter plot (for ease of analysis HSA sigmoidal curves were split into 3 standard curves with HSA concentration ranges of 0–200 ng/ml, 200–800 ng/ml and […]). Quadratic equations were rearranged to make X (sample HSA concentration) the unknown variant. Y values (OD values) and a/b/c constants generated from trendline equations were inputted into rearranged quadratic equations per assay. HSA concentrations calculated were corrected accordingly for any differences in culture final volumes, sample dilutions during assays and cells number.

[10] = tested on: iPSc differentiated Cardiomyocytes; experiment: MTT viability of cardiac module in 4-organ system; conditions: 4-organ co-culture under flow, serum-free medium, 48 h drug treatment, day 7, vs control, DOX 5 μM, ATR 100 μM, VPA 2 mM, APAP 5 mM, AMAP 5 mM
From the text: as §1, §2

[11] = cited from earlier work
liver [12] = conditions: patients undergoing DOX treatment; cited from earlier work
neurons [13] = experiment: Neuron electrophysiology recording (patch clamp); type: cell-based, human; conditions: 4-organ co-culture under flow, 48 h drug treatment, day 7, vs control, DOX 5 μM, ATR 100 μM
From the text: Electrophysiological properties of neuron cultures where recorded on the last day of co-culture following a previously described method. Values of firing, repetitive firing, spontaneous firing, inward sodium current, outward potassium current, action potential peak voltage and the resting membrane potential, characterized the mature functionality of neurons in the in vitro system. Drug alterations of the neuronal electrophysiology are discussed in this manuscript.

skeletal muscle cells = experiment: Bright-field imaging of skeletal muscle morphology in 4-organ system; type: cell-based, human; conditions: 4-organ co-culture under flow, DOX 5 μM, 48 h
From the text: Cell morphology and function were studied each day with an inverted bright-field microscope (Carl Zeiss) using a 10X objective. This working distance allowed the imaging of the cells in the specific surfaces inside the housing. Images of each fraction and systems were collected with an Axio Cam and AxioVision AC software to study morphological or functional changes in the co-culture chamber for each organ.

## COc1cccc2c1C(=O)c1c(O)c3c(c(O)c1C2=O)C[C@@](O)(C(=O)CO)C[C@@H]3O[C@H]1C[C@H](N)[C@H](O)[C@H](C)O1 [Doxorubicin]
Human Skeletal Myofibers [1]
  Skeletal muscle viability, loss: Toxicity not observed
Muscle
  Drug effects on cell functionality, Muscle, Literature: Toxicity at higher concentrations
  Drug effects on cell viability, Muscle, Literature: Toxicity at higher concentrations
Neurons [2]
  Neuronal cell viability, loss (cell loss by morphology/cell count): 33 ± 13% loss of cell viability
Neurons [2]; listed as DOX
  Neuronal cell viability, loss (cell loss by morphology/cell count): 33 ± 18% and 33 ± 13%
HepG2/C3A [3]
  Urea production, increase: HSA and Urea not affected( ^*)
HepG2/C3A [3]; listed as DOX
  Urea production, increase: No effects
HepG2/C3A [4]
  Liver (hepatocyte) cell viability, loss: 49 ± 10% loss
HepG2/C3A [4]; listed as DOX
  Liver (hepatocyte) cell viability, loss: 49 ± 10%
Human Skeletal Myofibers [5]
  Skeletal muscle loss of contractile ability (share of cultures in which contraction ceased): 60% loss of contractile ability
Human Skeletal Myofibers [5]; listed as DOX
  Skeletal muscle loss of contractile ability (share of cultures in which contraction ceased): 60%
Neurons [6]
  Drug effects on cell functionality, Neurons, Literature: Neurologic disturbances ( ^**)
  Drug effects on cell viability, Neurons, Literature: Neurologic disturbances ( ^**)
[7]
  Cardiomyocyte beating rate (beat frequency), decrease: 47 ± 9% decrease in beating rate
[7]; listed as DOX
  Cardiomyocyte beating rate (beat frequency), decrease: 47 ± 9%
neuron
  cytotoxicity: 25%
Liver [8]
  Drug effects on cell functionality, Liver, Literature: May be compromised
  Drug effects on cell viability, Liver, Literature: Toxicity reported
Cardiomyocytes
  Drug effects on cell functionality, Cardiomyocytes, Literature: Compromised
  Drug effects on cell viability, Cardiomyocytes, Literature: Toxicity reported
HepG2/C3A [9]
  HSA (albumin) production, increase: HSA and Urea not affected( ^*)
HepG2/C3A [9]; listed as DOX
  HSA (albumin) production, increase: No effects
[10]
  Cardiomyocyte viability, loss: 65 ± 6% loss
[10]; listed as DOX
  Cardiomyocyte viability, loss: 65 ± 6%
[11]; patients
  Patient plasma concentrations typically detected: 0.5 to 1 µM
[11]; typically
  Concentration in mitochondria relative to plasma levels: 100 times
Liver [12]
  Patients undergoing treatment that show hepatotoxicity: 40%
Neurons [13]
  Neuronal action potential peak voltage and resting membrane potential (DOX also peak ionic currents): not significantly different
Neurons [13]; APAP 5 mM
  Neuronal ion currents and firing of stimulated action potentials: no changes
Neurons [13]; APAP 5 mM, AMAP 5 mM, listed as DOX
  Neuronal repetitive and spontaneous firing ability: not observed after treatment
Neurons [13]; VPA 2 mM, APAP 5 mM, AMAP 5 mM
  Neuronal electrophysiology, overall effect: Electrophysiology affected
Skeletal muscle cells
  Muscle morphology: not affected
